Like-named read-outs stand apart in the source and are kept apart here.
How the values were obtained:
GPR139 = target: T1, GPR139 (Homo sapiens, UniProt Q6DWJ6); assay: GPR139 Agonist titration / agonist counterscreen assay (calcium detection, HEK-GPR139 cells); assay type: cell-based; set-up: expressed in transfected cells; host or cells: HEK Aequorin cells, Maxcyte transient transfection; conditions: GPR139 Agonist Activity; for Averaged Max % Response (±St. Dev.): activity relative to known control; for EC50: read-out: EC50
T1 sequence (Q6DWJ6 1-353): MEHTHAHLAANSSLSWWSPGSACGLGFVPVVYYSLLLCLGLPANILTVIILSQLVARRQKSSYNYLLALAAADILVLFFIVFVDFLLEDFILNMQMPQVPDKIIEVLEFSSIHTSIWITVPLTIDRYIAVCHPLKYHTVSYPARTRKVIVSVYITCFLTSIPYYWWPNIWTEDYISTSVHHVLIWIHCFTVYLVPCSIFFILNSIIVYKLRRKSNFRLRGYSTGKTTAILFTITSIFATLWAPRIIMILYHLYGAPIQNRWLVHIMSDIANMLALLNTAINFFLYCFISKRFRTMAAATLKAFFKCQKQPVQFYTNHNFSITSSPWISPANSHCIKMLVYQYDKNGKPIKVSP
Description: GPR activity was assessed using a calcium detection assay. […] Negative control samples were treated with DMSO. […] Intracellular calcium was measured using Calcium 5.

parental HEK cells = assay: HEK parental Agonist Counterscreen Assay (non-transfected cells); assay type: cell-based; conditions: for Averaged Max % Response (±St. Dev.): activity relative to known control
Text: The high control for the agonist counterscreen was Forskolin not acetylcholine.

[1] = values printed in E-notation without unit
[2] = Homo sapiens, HEK293, HEK Agonist Activity, parental non-transfected HEK cells
[3] = Homo sapiens, HEK293, HEK Agonist Activity section of Table 4 (parental HEK counterscreen)
[4] = HEK Agonist Activity, parental non-transfected HEK cells

SMILES	Averaged Max % Response (±St. Dev.) (GPR139) [%]	Lipophilic Efficiency (logD) (GPR139; based on logD)	Lipophilic Efficiency (logP) (GPR139; based on logP)	Hill Slope (GPR139; fitted dose-response curve)	Efficiency Ligand (GPR139; ligand efficiency)	EC50 (GPR139; [1]) [nM]	Lipophilic Efficiency (logD) (parental HEK cells; HEK Agonist Activity)	Lipophilic Efficiency (logP) (parental HEK cells; HEK Agonist Activity)	Averaged Max % Response (±St. Dev.) (parental HEK cells; HEK Agonist Activity) [%]	Lipophilic Efficiency (logD) (parental HEK cells; HEK Agonist Activity section)	Lipophilic Efficiency (logP) (parental HEK cells; HEK Agonist Activity section)	Averaged Max % Response (±St. Dev.) (parental HEK cells; HEK Agonist Activity section) [%]	EC50 (parental HEK cells; [3]) [nM]	further results
CC1(c2ccc3ccccc3c2)NC(=O)N(CC(=O)Nc2ccccc2Cl)C1=O (stereo not drawn) [SR-01000066950]	117.24 ± 4.32	3.74	3.74	0.61	0.36	40.5	1.21	1.21	2.95 ± 8.11	–	–	–	–	EC50 (parental HEK cells; [2]): > 13800 nM
O=C(CCCOc1ccc(Cl)cc1Cl)NNC(=O)Cc1ccccc1 [SR-01000067982]	88.62 ± 11.28	3.55	3.54	0.94	0.39	98.6	–	–	–	1.37	1.37	10.05 ± 3.22	> 14800	–
CN(Cc1ccc[nH]1)C(=O)CN1C(=O)NC2(CCc3ccccc3C2)C1=O (stereo not drawn) [SR-01000068179]	87.03 ± 9.26	–	–	–	–	–	–	–	–	2.52	2.52	2.62 ± 3.03	> 14700	Efficiency Ligand (GPR139): 0.31; Hill Slope (GPR139): 0.84; Lipophilic Efficiency (logD) (GPR139): 3.64; Lipophilic Efficiency (logP) (GPR139): 3.64; EC50 (GPR139; HEK-GPR139 cells): 1100 nM
CN(Cc1cccs1)C(=O)CN1C(=O)NC(C)(c2ccc3c(c2)OCO3)C1=O (stereo not drawn) [SR-01000068229]	112.57 ± 13.42	7.01	7.01	0.64	0.43	2.9	3.29	3.29	−2.42 ± 7.08	–	–	–	–	EC50 (parental HEK cells; [4]): > 15400 nM
CC1C(CC(=O)NCC(=O)CCC2=Cc3ccccc3C2)=Nc2ccccc21 (stereo not drawn) [SR-01000068608]	124.32 ± 15.50	4.52	4.51	0.93	0.34	–	–	–	–	2.46	2.46	24.17 ± 25.98	> 14300	–
Cc1cc(C(=O)NNC(=O)CNC(=O)Cc2cccc3ccccc23)c(C)o1 [SR-01000068718]	119.00 ± 0.36	6.50	6.50	0.58	0.40	10.1	3.34	3.34	20.24 ± 11.96	–	–	–	–	EC50 (parental HEK cells; [2]): > 14900 nM
O=C(CCC(=O)c1ccco1)NNC(=O)CN1CCCc2ccccc21 [SR-01000068721]	109.68 ± 5.18	5.32	5.32	0.71	0.40	34.7	2.68	2.68	8.82 ± 10.34	–	–	–	–	EC50 (parental HEK cells; [2]): > 15200 nM
Cn1c(CC(=O)NNC(=O)CSc2ccc3ccccc3c2)nc2ccccc21 [SR-01000068729]	126.00 ± 7.94	6.03	6.03	–	0.44	> 0.779	1.73	1.73	−3.41 ± 1.08	–	–	–	–	EC50 (parental HEK cells; [4]): > 15300 nM
O=C(COc1ccccc1F)NNC(=O)CSc1ccc2ccccc2c1 [SR-01000068761]	123.40 ± 6.48	5.00	4.99	0.55	0.42	9.7	1.82	1.81	4.98 ± 10.48	–	–	–	–	EC50 (parental HEK cells; [2]): > 14700 nM
O=C(CCc1nc2ccccc2s1)NNC(=O)C1CCCCC1 [SR-01000068916]	118.50 ± 16.12	4.23	4.23	0.84	0.43	98.9	–	–	–	2.04	2.04	19.72 ± 5.30	> 15300	–
COc1cc(C(=O)NNC(=O)CCc2c[nH]c3ccccc23)ccc1OC(C)C [SR-01000068919]	93.45 ± 21.44	–	–	–	–	–	–	–	–	1.78	1.78	39.50 ± 8.66	> 14200	Efficiency Ligand (GPR139): 0.31; Hill Slope (GPR139): 0.88; Lipophilic Efficiency (logD) (GPR139): 3.27; Lipophilic Efficiency (logP) (GPR139): 3.27; EC50 (GPR139; HEK-GPR139 cells): 460 nM
Cc1cc(C(=O)CCC(=O)NNC(=O)c2ccc(COc3ccccc3)cc2)c(C)o1 [SR-01000069259]	126.19 ± 25.88	3.74	3.74	–	0.37	> 6.5	0.40	0.40	7.00 ± 9.99	–	–	–	–	EC50 (parental HEK cells; [2]): > 14200 nM
O=C(CSc1ccc2ccccc2c1)NNC(=O)c1ccc(Br)s1 [SR-01000069345]	114.67 ± 3.82	4.37	4.37	1.18	0.49	3.7	0.77	0.77	15.34 ± 2.20	–	–	–	–	EC50 (parental HEK cells; [4]): > 14700 nM
Cc1ccccc1SCC(=O)NNC(=O)c1ccc(Br)s1 [SR-01000069352]	97.44 ± 1.25	3.03	3.02	1.19	0.44	248	–	–	–	1.25	1.25	11.25 ± 2.29	> 14600	–
Cc1ccc(SCC(=O)NNC(=O)CCC(=O)c2cccs2)cc1 [SR-01000069391]	99.00 ± 11.26	4.39	4.39	0.48	0.39	171	–	–	–	2.43	2.43	12.32 ± 6.09	–	EC50 (parental HEK cells; HEK Agonist Activity section of Table 4 (parental HEK counterscreen)): > 15500 nM
Cc1ccc(OCC(=O)NNC(=O)CN(C)S(=O)(=O)c2ccc(C)cc2)cc1 [SR-01000069435]	94.34 ± 21.26	5.44	5.43	0.66	0.36	–	–	–	–	3.09	3.08	14.76 ± 3.78	> 14600	–
O=C(CCC1CCCC1)NNC(=O)CSc1ccc(Cl)cc1 [SR-01000069439]	123.43 ± 12.00	3.93	3.93	0.62	0.46	61.7	–	–	–	1.55	1.55	1.51 ± 2.29	> 14900	–
O=C(Cc1cccc2ccccc12)NCC(=O)NNC(=O)c1ccco1 [SR-01000069451]	95.18 ± 9.10	6.21	6.20	1.06	0.39	60.5	–	–	–	3.83	3.83	25.95 ± 1.00	> 14400	–
COc1ccccc1CC1(C)NC(=O)N(CC(=O)NC(C)c2cccc(Cl)c2)C1=O (stereo not drawn) [SR-01000069564]	87.90 ± 18.60	4.85	4.85	0.93	0.36	17.2	1.93	1.93	−3.54 ± 8.88	–	–	–	–	EC50 (parental HEK cells; [4]): > 14400 nM
